According to the NIST ThermoML archive (doi:10.1021/je100068y):
“And” between values parts separate entries of the source, which are not always exact repeats. Equal values may be shown once. Numbers after ± are expanded uncertainties.

How the values were obtained:
[1] = mn = molality of the nth substance listed, in mol/kg; conditions: 101.33 kPa, Liquid, m1 = 0.05
[2] = cn = amount concentration of the nth substance listed, in mol/dm3; conditions: 101.33 kPa, Liquid, Alternating current cell with electrodes

In the case of `CCCCCCCCCCCCOS(=O)(=O)[O-].[Na+]` [sodium dodecyl sulfate] + O, the mass density ([1]; 298.15 K) is reported as 999.198 ± 0.14 kg/m3 and 999.155 ± 0.23 kg/m3, the mass density ([1]; 303.15 K) is reported as 997.657 ± 0.14 kg/m3 and 997.661 ± 0.23 kg/m3 and the mass density ([1]; 308.15 K) is reported as 995.989 ± 0.14 kg/m3 and 995.962 ± 0.24 kg/m3. The mass density ([1]; 313.15 K) was 994.178 ± 0.14 kg/m3 and 994.186 ± 0.24 kg/m3, the electrical conductivity ([2]; 288.15 K, c1 = 0.003022) was 0.0165 ± 0.00027 S/m and the electrical conductivity ([2]; 288.15 K, c1 = 0.004552) was 0.0247 ± 0.00033 S/m. The electrical conductivity ([2]; 288.15 K, c1 = 0.005661) was 0.0304 ± 0.00037 S/m, the electrical conductivity ([2]; 288.15 K, c1 = 0.006744) was 0.0361 ± 0.00042 S/m and the electrical conductivity ([2]; 288.15 K, c1 = 0.007679) was 0.0408 ± 0.00044 S/m. The electrical conductivity ([2]; 288.15 K, c1 = 0.008765) was 0.0447 ± 0.00047 S/m, the electrical conductivity ([2]; 288.15 K, c1 = 0.009933) was 0.0474 ± 0.00048 S/m and the electrical conductivity ([2]; 288.15 K, c1 = 0.0111) was 0.0497 ± 0.00051 S/m. The electrical conductivity ([2]; 288.15 K, c1 = 0.01221) was 0.0518 ± 0.00053 S/m, the electrical conductivity ([2]; 288.15 K, c1 = 0.01335) was 0.0538 ± 0.00055 S/m and the electrical conductivity ([2]; 288.15 K, c1 = 0.01444) was 0.0558 ± 0.00057 S/m. It also gave an electrical conductivity ([2]; 288.15 K, c1 = 0.0156) of 0.058 ± 0.00059 S/m, an electrical conductivity ([2]; 288.15 K, c1 = 0.01674) of 0.0601 ± 0.00061 S/m and an electrical conductivity ([2]; 293.15 K, c1 = 0.003022) of 0.0184 ± 0.00031 S/m. For the same compound, the electrical conductivity ([2]; 293.15 K, c1 = 0.004552) was 0.0279 ± 0.00037 S/m, the electrical conductivity ([2]; 293.15 K, c1 = 0.005661) was 0.0344 ± 0.00042 S/m and the electrical conductivity ([2]; 293.15 K, c1 = 0.006744) was 0.0408 ± 0.00047 S/m. It also gave an electrical conductivity ([2]; 293.15 K, c1 = 0.007679) of 0.0461 ± 0.0005 S/m, an electrical conductivity ([2]; 293.15 K, c1 = 0.008765) of 0.0502 ± 0.00052 S/m and an electrical conductivity ([2]; 293.15 K, c1 = 0.009933) of 0.0532 ± 0.00054 S/m. It also gave an electrical conductivity ([2]; 293.15 K, c1 = 0.0111) of 0.0559 ± 0.00057 S/m, an electrical conductivity ([2]; 293.15 K, c1 = 0.01221) of 0.0584 ± 0.00059 S/m and an electrical conductivity ([2]; 293.15 K, c1 = 0.01335) of 0.0609 ± 0.00062 S/m. For the same compound, the electrical conductivity ([2]; 293.15 K, c1 = 0.01444) was 0.0632 ± 0.00064 S/m, the electrical conductivity ([2]; 293.15 K, c1 = 0.0156) was 0.0657 ± 0.00067 S/m and the electrical conductivity ([2]; 293.15 K, c1 = 0.01674) was 0.0683 ± 0.00069 S/m. For the same compound, the electrical conductivity ([2]; 298.15 K, c1 = 0.003022) was 0.0207 ± 0.00034 S/m, the electrical conductivity ([2]; 298.15 K, c1 = 0.004552) was 0.0313 ± 0.00042 S/m and the electrical conductivity ([2]; 298.15 K, c1 = 0.005661) was 0.0388 ± 0.00047 S/m. The electrical conductivity ([2]; 298.15 K, c1 = 0.006744) was 0.0458 ± 0.00053 S/m, the electrical conductivity ([2]; 298.15 K, c1 = 0.007679) was 0.0517 ± 0.00056 S/m and the electrical conductivity ([2]; 298.15 K, c1 = 0.008765) was 0.0565 ± 0.00059 S/m. For the same compound, the electrical conductivity ([2]; 298.15 K, c1 = 0.009933) was 0.06 ± 0.00061 S/m, the electrical conductivity ([2]; 298.15 K, c1 = 0.0111) was 0.0632 ± 0.00064 S/m and the electrical conductivity ([2]; 298.15 K, c1 = 0.01221) was 0.0661 ± 0.00067 S/m. For the same compound, the electrical conductivity ([2]; 298.15 K, c1 = 0.01335) was 0.0688 ± 0.0007 S/m, the electrical conductivity ([2]; 298.15 K, c1 = 0.01444) was 0.0715 ± 0.00072 S/m and the electrical conductivity ([2]; 298.15 K, c1 = 0.0156) was 0.0745 ± 0.00076 S/m. The electrical conductivity ([2]; 298.15 K, c1 = 0.01674) was 0.0775 ± 0.00079 S/m, the electrical conductivity ([2]; 303.15 K, c1 = 0.003022) was 0.0234 ± 0.00038 S/m and the electrical conductivity ([2]; 303.15 K, c1 = 0.004552) was 0.0349 ± 0.00046 S/m. It also gave an electrical conductivity ([2]; 303.15 K, c1 = 0.005661) of 0.0431 ± 0.00052 S/m, an electrical conductivity ([2]; 303.15 K, c1 = 0.006744) of 0.051 ± 0.00059 S/m and an electrical conductivity ([2]; 303.15 K, c1 = 0.007679) of 0.0577 ± 0.00063 S/m. It also gave an electrical conductivity ([2]; 303.15 K, c1 = 0.008765) of 0.0632 ± 0.00065 S/m, an electrical conductivity ([2]; 303.15 K, c1 = 0.009933) of 0.0671 ± 0.00069 S/m and an electrical conductivity ([2]; 303.15 K, c1 = 0.0111) of 0.0708 ± 0.00072 S/m. It also gave an electrical conductivity ([2]; 303.15 K, c1 = 0.01221) of 0.074 ± 0.00075 S/m, an electrical conductivity ([2]; 303.15 K, c1 = 0.01335) of 0.0774 ± 0.00079 S/m and an electrical conductivity ([2]; 303.15 K, c1 = 0.01444) of 0.0805 ± 0.00082 S/m. It also gave an electrical conductivity ([2]; 303.15 K, c1 = 0.0156) of 0.084 ± 0.00085 S/m, an electrical conductivity ([2]; 303.15 K, c1 = 0.01674) of 0.0873 ± 0.00089 S/m and an electrical conductivity ([2]; 308.15 K, c1 = 0.003022) of 0.0258 ± 0.00042 S/m. For the same compound, the electrical conductivity ([2]; 308.15 K, c1 = 0.004552) was 0.0386 ± 0.00051 S/m, the electrical conductivity ([2]; 308.15 K, c1 = 0.005661) was 0.0477 ± 0.00058 S/m and the electrical conductivity ([2]; 308.15 K, c1 = 0.006744) was 0.0564 ± 0.00065 S/m. For the same compound, the electrical conductivity ([2]; 308.15 K, c1 = 0.007679) was 0.0638 ± 0.0007 S/m, the electrical conductivity ([2]; 308.15 K, c1 = 0.008765) was 0.0704 ± 0.00073 S/m and the electrical conductivity ([2]; 308.15 K, c1 = 0.009933) was 0.0751 ± 0.00077 S/m. For the same compound, the electrical conductivity ([2]; 308.15 K, c1 = 0.0111) was 0.0793 ± 0.00081 S/m, the electrical conductivity ([2]; 308.15 K, c1 = 0.01221) was 0.083 ± 0.00084 S/m and the electrical conductivity ([2]; 308.15 K, c1 = 0.01335) was 0.0869 ± 0.00088 S/m. The electrical conductivity ([2]; 308.15 K, c1 = 0.01444) was 0.0904 ± 0.00092 S/m, the electrical conductivity ([2]; 308.15 K, c1 = 0.0156) was 0.0944 ± 0.00096 S/m and the electrical conductivity ([2]; 308.15 K, c1 = 0.01674) was 0.098 ± 0.00099 S/m.
